In the supplement of paper PMC10307832:

Key:
Test in all cases: relative viability (nuclei count vs DMSO), 5 days (fraction); higher = more cells survive
[1] = compound: C=CC(=O)N1CCC[C@@H](n2nc(-c3ccc(Oc4ccccc4)cc3)c3c(N)ncnc32)C1 [Ibrutinib]
Method in brief: (§1)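 Only plates meeting two conditions passed: control CV below 25% and at least one doubling. Lung cancer cell lines, kept overnight at 37 °C in 1536-well plates, were pinned with five library-drug doses (not always all listed) √10 apart on vehicle-anchored plates and grown 5 days without medium change. A one-step fix, permeabilisation and Hoechst stain preceded 4× imaging and MetaXpress nuclear counting. Viability equals treated-well nuclei divided by vehicle-well nuclei, as the median over plates.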

[2] = compound: C=CC(=O)Nc1cc(-n2c(=O)ccc3cnc4ccc(-c5ccc(NS(C)(=O)=O)cc5)cc4c32)ccc1C [BMX-IN-1]
Method in brief: as §1

[3] = compound: C=CCc1cccc(/C=N/NC(=O)CN2CCN(Cc3ccccc3)CC2)c1O [PAC-1]
Method in brief: as §1

[4] = compound: C=CC(=O)N1CCC[C@@H](n2nc(-c3ccc(Oc4ccccc4)cc3)c3c(N)ncnc32)C1 [Ibrutinib] + COc1cc2c(Oc3ccc(NC(=O)C4(C(=O)Nc5ccc(F)cc5)CC4)cc3F)ccnc2cc1OCCCN1CCOCC1 [Foretinib] (partner 0.25 µM)
Method in brief: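 For relative viability, nuclei counts in treated wells were divided by those in vehicle wells. Lung cancer cell lines had been pin-tool dosed in 1536-well plates the day after seeding and cultured for 5 days, then fixed and stained in one step (final 0.05% Triton X-100, 1% formaldehyde, 1 ug/ml Hoechst) and imaged at 4×. Doses were one drug alone or a fixed anchor-drug dose plus five library-drug doses (not always all listed) in √10 steps, and values are duplicate-plate medians.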

PC-3 [JPC-3]
relative viability ([1]; 0.005 µM): 1.03
relative viability ([1]; 0.01581 µM): 0.97
relative viability ([1]; 0.05 µM): 0.906
relative viability ([1]; 0.1581 µM): 0.912
relative viability ([1]; 0.5 µM): 0.638
relative viability ([2]; 0.02 µM): 1.08
relative viability ([2]; 0.2 µM): 1.12
relative viability ([2]; 0.6325 µM): 1.11
relative viability ([2]; 2 µM): 1.06
relative viability ([3]; 0.02 µM): 1.06
relative viability ([3]; 0.06325 µM): 1.08
relative viability ([3]; 0.2 µM): 1.05
relative viability ([3]; 2 µM): 1.03
relative viability ([4]; first compound 0.005 µM): 1.05
relative viability ([4]; first compound 0.01581 µM): 0.936
relative viability ([4]; first compound 0.05 µM): 0.891
relative viability ([4]; first compound 0.1581 µM): 1.09
relative viability ([4]; first compound 0.5 µM): 0.547

PC-14
relative viability ([1]; 0.005 µM): 1.08
relative viability ([1]; 0.01581 µM): 0.918
relative viability ([1]; 0.05 µM): 0.952
relative viability ([1]; 0.1581 µM): 1.02
relative viability ([1]; 0.5 µM): 0.571
relative viability ([2]; 0.02 µM): 1.12
relative viability ([2]; 0.2 µM): 1.06
relative viability ([2]; 0.6325 µM): 1.22
relative viability ([2]; 2 µM): 1
relative viability ([3]; 0.02 µM): 1.03
relative viability ([3]; 0.06325 µM): 1.03
relative viability ([3]; 0.2 µM): 0.995
relative viability ([3]; 2 µM): 0.988
relative viability ([4]; first compound 0.005 µM): 1.1
relative viability ([4]; first compound 0.01581 µM): 0.907
relative viability ([4]; first compound 0.1581 µM): 1.02
relative viability ([4]; first compound 0.5 µM): 0.985

RERF-LC-KJ
relative viability ([1]; 0.005 µM): 1.03
relative viability ([1]; 0.01581 µM): 0.85
relative viability ([1]; 0.05 µM): 0.942
relative viability ([1]; 0.1581 µM): 0.989
relative viability ([1]; 0.5 µM): 0.849
relative viability ([2]; 0.02 µM): 1.14
relative viability ([2]; 0.2 µM): 1.04
relative viability ([2]; 0.6325 µM): 1.03
relative viability ([2]; 2 µM): 1.03
relative viability ([3]; 0.02 µM): 1.08
relative viability ([3]; 0.06325 µM): 1
relative viability ([3]; 0.2 µM): 0.947
relative viability ([3]; 2 µM): 0.942
relative viability ([4]; first compound 0.005 µM): 0.97
relative viability ([4]; first compound 0.01581 µM): 0.707
relative viability ([4]; first compound 0.05 µM): 0.841
relative viability ([4]; first compound 0.1581 µM): 0.895
relative viability ([4]; first compound 0.5 µM): 0.845

SK-LU-1
relative viability ([1]; 0.005 µM): 0.944
relative viability ([1]; 0.01581 µM): 0.954
relative viability ([1]; 0.05 µM): 0.987
relative viability ([1]; 0.1581 µM): 1.02
relative viability ([2]; 0.02 µM): 1.22
relative viability ([2]; 0.2 µM): 1.23
relative viability ([2]; 0.6325 µM): 1.16
relative viability ([2]; 2 µM): 1.1
relative viability ([3]; 0.02 µM): 1
relative viability ([3]; 0.06325 µM): 1.02
relative viability ([3]; 0.2 µM): 0.975
relative viability ([3]; 2 µM): 0.999
relative viability ([4]; first compound 0.005 µM): 0.857
relative viability ([4]; first compound 0.01581 µM): 0.804
relative viability ([4]; first compound 0.05 µM): 0.814
relative viability ([4]; first compound 0.1581 µM): 0.926
relative viability ([4]; first compound 0.5 µM): 0.719

SW 900
relative viability ([1]; 0.005 µM): 0.578
relative viability ([1]; 0.01581 µM): 0.693
relative viability ([1]; 0.05 µM): 0.873
relative viability ([1]; 0.1581 µM): 0.708
relative viability ([1]; 0.5 µM): 0.845
relative viability ([2]; 0.02 µM): 0.971
relative viability ([2]; 0.2 µM): 0.886
relative viability ([2]; 0.6325 µM): 0.911
relative viability ([2]; 2 µM): 1.09
relative viability ([3]; 0.02 µM): 0.766
relative viability ([3]; 0.06325 µM): 1.02
relative viability ([3]; 0.2 µM): 0.815
relative viability ([3]; 2 µM): 0.792
relative viability ([4]; first compound 0.05 µM): 0.861
relative viability ([4]; first compound 0.1581 µM): 0.683
relative viability ([4]; first compound 0.5 µM): 0.836

SW 1573
relative viability ([1]; 0.005 µM): 0.912
relative viability ([1]; 0.01581 µM): 0.924
relative viability ([1]; 0.1581 µM): 0.94
relative viability ([1]; 0.5 µM): 0.974
relative viability ([2]; 0.02 µM): 1.13
relative viability ([2]; 0.2 µM): 1.08
relative viability ([2]; 0.6325 µM): 1.09
relative viability ([2]; 2 µM): 0.904
relative viability ([3]; 0.02 µM): 0.965
relative viability ([3]; 0.06325 µM): 1.03
relative viability ([3]; 0.2 µM): 1.01
relative viability ([3]; 2 µM): 1.15
relative viability ([4]; first compound 0.005 µM): 0.816
relative viability ([4]; first compound 0.01581 µM): 0.733
relative viability ([4]; first compound 0.05 µM): 1.01
relative viability ([4]; first compound 0.1581 µM): 0.844
relative viability ([4]; first compound 0.5 µM): 0.879

UMC-11
relative viability ([1]; 0.005 µM): 0.75
relative viability ([1]; 0.01581 µM): 0.931
relative viability ([1]; 0.05 µM): 1.01
relative viability ([1]; 0.1581 µM): 0.937
relative viability ([1]; 0.5 µM): 0.922
relative viability ([2]; 0.02 µM): 1.11
relative viability ([2]; 0.2 µM): 1.1
relative viability ([2]; 0.6325 µM): 1.09
relative viability ([2]; 2 µM): 1.03
relative viability ([3]; 0.02 µM): 1
relative viability ([3]; 0.06325 µM): 0.969
relative viability ([3]; 0.2 µM): 1
relative viability ([3]; 2 µM): 1.01
relative viability ([4]; first compound 0.005 µM): 1.04
relative viability ([4]; first compound 0.01581 µM): 1.03
relative viability ([4]; first compound 0.05 µM): 1.04
relative viability ([4]; first compound 0.1581 µM): 0.993
relative viability ([4]; first compound 0.5 µM): 1.02
